Data from patent US20130096332A1, “METHOD FOR INCREASING THE CONTENT OF DOCOSAHEXAENOIC ACID IN FAT-CONTAINING MATERIALS OR IN FATS AND OILS” (NIPPON SUISAN KAISHA, LTD., priority 2007, published 2013).

Columns and labels:
Format in all cases: cell-based
[1] = tested on: strain mh314, microorganism classified into Labyrinthulae; assay: DHA percentage of fatty acid composition (gas chromatography) after culture with desaturase inhibitor, strain mh314; conditions: GY medium, 28° C., 4 days, inhibitor added to medium (curcumin 1μg/ml), control 13.27
Experimental: (§1) Thirty three strains of microorganisms which were isolated from mangrove woods or sea water around Ishigaki City, Okinawa Prefecture and classified into Labyrinthulae, were cultured in a GY medium (prepared according to the method as described in “NIPPON SUISAN GAKKAISHI” vol. 68, no. 5, 674-678 (2002); GY medium containing 3% glucose and 1% yeast extract was prepared with 50% artificial sea water and adjusted to pH 6.0; this was used as a liquid medium or a plate medium with 1.5% agar) at 28° C. for 4 days, to which was added 1μg/ml of curcumin (Nacalai Tesque, Inc.) as an inhibitor for a Δ6-fatty acid desaturase. After termination of the culture, the microorganism was collected by centrifugal separation (1500×g, 10 min), and the cells were destroyed by ultra-sonication and extracted by chloroform/methanol (2:1; by v/v) to yield the total lipid. The resulting total lipid was subjected to methanolysis with 10% hydrogen chloride/methanol solution, and the fatty acid composition was analyzed by gas chromatography (Shimadzu Corp.; Model GC-2014). In a control, the same operation as mentioned above was made with no addition of curcumin. […]

[2] = tested on: strain mh313, microorganism classified into Labyrinthulae; assay: Determination of DHA amount with C19:0 internal standard, strain mh313; conditions: from ratio of peak area to C19:0 internal standard, control 0.56
Experimental: (§2) Thirty three strains of microorganisms which were isolated from mangrove woods or sea water around Ishigaki City, Okinawa Prefecture and classified into Labyrinthulae, were cultured in a GY medium (prepared according to the method as described in “NIPPON SUISAN GAKKAISHI” vol. 68, no. 5, 674-678 (2002); GY medium containing 3% glucose and 1% yeast extract was prepared with 50% artificial sea water and adjusted to pH 6.0; this was used as a liquid medium or a plate medium with 1.5% agar) at 28° C. for 4 days, to which was added 1μg/ml of curcumin (Nacalai Tesque, Inc.) as an inhibitor for a Δ6-fatty acid desaturase. […] The resulting total lipid was subjected to methanolysis with 10% hydrogen chloride/methanol solution, and the fatty acid composition was analyzed by gas chromatography (Shimadzu Corp.; Model GC-2014). […]
(§3) To the total lipid (about 40 mg) which was extracted from the cells cultured in Examples 1 and 2 was added 0.5mg of nonadecanoic acid (C19:0) as an internal standard substance; then, the fatty acid composition after methanolysis with 10% hydrogen chloride/methanol solution was analyzed by gas chromatography (Shimadzu Corp.; Model GC-2014). From the ratio of the peak area of each fatty acid including DHA to that of C19:0, the amount of each fatty acid was determined.

[3] = tested on: strain mh295, microorganism classified into Labyrinthulae; assay: DHA percentage of fatty acid composition (gas chromatography) after culture with desaturase inhibitor, strain mh295; conditions: GY medium, 28° C., 4 days, inhibitor added to medium (curcumin 1μg/ml), control 19.19
Experimental: as §1

[4] = tested on: strain mh313, microorganism classified into Labyrinthulae; assay: DHA percentage of fatty acid composition (gas chromatography) after culture with desaturase inhibitor, strain mh313; conditions: GY medium, 28° C., 4 days, inhibitor added to medium (curcumin 1μg/ml), control 26.03
Experimental: as §1

[5] = tested on: microorganism classified into Labyrinthulae; assay: Content of docosahexaenoic acid in fats and oils produced versus control (summary statements); conditions: culture with inhibitor versus no inhibitor
Experimental: as §2, §3

[6] = tested on: strain mh375, microorganism classified into Labyrinthulae; assay: DHA percentage of fatty acid composition (gas chromatography) after culture with desaturase inhibitor, strain mh375; conditions: GY medium, 28° C., 4 days, inhibitor added to medium (curcumin 1μg/ml), control 26.02
Experimental: as §1

[7] = tested on: strain mh295, microorganism classified into Labyrinthulae; assay: Determination of DHA amount with C19:0 internal standard, strain mh295; conditions: from ratio of peak area to C19:0 internal standard, control 0.45
Experimental: as §2, §3

[8] = tested on: strain mh314, microorganism classified into Labyrinthulae; assay: Determination of DHA amount with C19:0 internal standard, strain mh314; conditions: from ratio of peak area to C19:0 internal standard, control 0.21
Experimental: as §2, §3

[9] = tested on: strain mh375, microorganism classified into Labyrinthulae; assay: Determination of DHA amount with C19:0 internal standard, strain mh375; conditions: from ratio of peak area to C19:0 internal standard, control 0.39
Experimental: as §2, §3

## COc1cc(/C=C/C(=O)CC(=O)/C=C/c2ccc(O)c(OC)c2)ccc1O [Example 1, curcumin]
[1]
  percentage of the peak area of docosahexaenoic acid: 27.23%
[2]
  amount of DHA: 0.71 g/L
[3]
  percentage of the peak area of docosahexaenoic acid: 22.32%
[4]
  percentage of the peak area of docosahexaenoic acid: 31.05%
[5]
  content of docosahexaenoic acid in the fats and oils produced, in comparison with that of the control: significantly increased
[6]
  percentage of the peak area of docosahexaenoic acid: 33.77%
[7]
  amount of DHA: 0.67 g/L
[8]
  amount of DHA: 0.66 g/L
[9]
  amount of DHA: 1 g/L

## c1cc2c(cc1[C@H]1OC[C@H]3[C@@H]1CO[C@@H]3c1ccc3c(c1)OCO3)OCO2 [Example 2, sesamin]
[1]
  percentage of the peak area of docosahexaenoic acid: 22.31%
[2]
  amount of DHA: 1.45 g/L
[3]
  percentage of the peak area of docosahexaenoic acid: 21.47%
[4]
  percentage of the peak area of docosahexaenoic acid: 42.32%
[5]
  content of docosahexaenoic acid in the fats and oils produced, in comparison with that of the control: significantly increased
[6]
  percentage of the peak area of docosahexaenoic acid: 29.96%
[7]
  amount of DHA: 0.98 g/L
[8]
  amount of DHA: 0.82 g/L
[9]
  amount of DHA: 0.64 g/L
